Consider 1 compound from BindingDB's records for doi:10.1038/nchembio.1603 (Glaxosmithkline, 2014).

The target in the experiment is Fatty acid synthase (Homo sapiens, UniProt P49327). Kind of experiment: FAS Assay No1. The procedure: Inhibition of FAS by benzimidazole was measured by an endpoint assay for NADPH consumption.
Sequence of Fatty acid synthase (P49327 whole entry): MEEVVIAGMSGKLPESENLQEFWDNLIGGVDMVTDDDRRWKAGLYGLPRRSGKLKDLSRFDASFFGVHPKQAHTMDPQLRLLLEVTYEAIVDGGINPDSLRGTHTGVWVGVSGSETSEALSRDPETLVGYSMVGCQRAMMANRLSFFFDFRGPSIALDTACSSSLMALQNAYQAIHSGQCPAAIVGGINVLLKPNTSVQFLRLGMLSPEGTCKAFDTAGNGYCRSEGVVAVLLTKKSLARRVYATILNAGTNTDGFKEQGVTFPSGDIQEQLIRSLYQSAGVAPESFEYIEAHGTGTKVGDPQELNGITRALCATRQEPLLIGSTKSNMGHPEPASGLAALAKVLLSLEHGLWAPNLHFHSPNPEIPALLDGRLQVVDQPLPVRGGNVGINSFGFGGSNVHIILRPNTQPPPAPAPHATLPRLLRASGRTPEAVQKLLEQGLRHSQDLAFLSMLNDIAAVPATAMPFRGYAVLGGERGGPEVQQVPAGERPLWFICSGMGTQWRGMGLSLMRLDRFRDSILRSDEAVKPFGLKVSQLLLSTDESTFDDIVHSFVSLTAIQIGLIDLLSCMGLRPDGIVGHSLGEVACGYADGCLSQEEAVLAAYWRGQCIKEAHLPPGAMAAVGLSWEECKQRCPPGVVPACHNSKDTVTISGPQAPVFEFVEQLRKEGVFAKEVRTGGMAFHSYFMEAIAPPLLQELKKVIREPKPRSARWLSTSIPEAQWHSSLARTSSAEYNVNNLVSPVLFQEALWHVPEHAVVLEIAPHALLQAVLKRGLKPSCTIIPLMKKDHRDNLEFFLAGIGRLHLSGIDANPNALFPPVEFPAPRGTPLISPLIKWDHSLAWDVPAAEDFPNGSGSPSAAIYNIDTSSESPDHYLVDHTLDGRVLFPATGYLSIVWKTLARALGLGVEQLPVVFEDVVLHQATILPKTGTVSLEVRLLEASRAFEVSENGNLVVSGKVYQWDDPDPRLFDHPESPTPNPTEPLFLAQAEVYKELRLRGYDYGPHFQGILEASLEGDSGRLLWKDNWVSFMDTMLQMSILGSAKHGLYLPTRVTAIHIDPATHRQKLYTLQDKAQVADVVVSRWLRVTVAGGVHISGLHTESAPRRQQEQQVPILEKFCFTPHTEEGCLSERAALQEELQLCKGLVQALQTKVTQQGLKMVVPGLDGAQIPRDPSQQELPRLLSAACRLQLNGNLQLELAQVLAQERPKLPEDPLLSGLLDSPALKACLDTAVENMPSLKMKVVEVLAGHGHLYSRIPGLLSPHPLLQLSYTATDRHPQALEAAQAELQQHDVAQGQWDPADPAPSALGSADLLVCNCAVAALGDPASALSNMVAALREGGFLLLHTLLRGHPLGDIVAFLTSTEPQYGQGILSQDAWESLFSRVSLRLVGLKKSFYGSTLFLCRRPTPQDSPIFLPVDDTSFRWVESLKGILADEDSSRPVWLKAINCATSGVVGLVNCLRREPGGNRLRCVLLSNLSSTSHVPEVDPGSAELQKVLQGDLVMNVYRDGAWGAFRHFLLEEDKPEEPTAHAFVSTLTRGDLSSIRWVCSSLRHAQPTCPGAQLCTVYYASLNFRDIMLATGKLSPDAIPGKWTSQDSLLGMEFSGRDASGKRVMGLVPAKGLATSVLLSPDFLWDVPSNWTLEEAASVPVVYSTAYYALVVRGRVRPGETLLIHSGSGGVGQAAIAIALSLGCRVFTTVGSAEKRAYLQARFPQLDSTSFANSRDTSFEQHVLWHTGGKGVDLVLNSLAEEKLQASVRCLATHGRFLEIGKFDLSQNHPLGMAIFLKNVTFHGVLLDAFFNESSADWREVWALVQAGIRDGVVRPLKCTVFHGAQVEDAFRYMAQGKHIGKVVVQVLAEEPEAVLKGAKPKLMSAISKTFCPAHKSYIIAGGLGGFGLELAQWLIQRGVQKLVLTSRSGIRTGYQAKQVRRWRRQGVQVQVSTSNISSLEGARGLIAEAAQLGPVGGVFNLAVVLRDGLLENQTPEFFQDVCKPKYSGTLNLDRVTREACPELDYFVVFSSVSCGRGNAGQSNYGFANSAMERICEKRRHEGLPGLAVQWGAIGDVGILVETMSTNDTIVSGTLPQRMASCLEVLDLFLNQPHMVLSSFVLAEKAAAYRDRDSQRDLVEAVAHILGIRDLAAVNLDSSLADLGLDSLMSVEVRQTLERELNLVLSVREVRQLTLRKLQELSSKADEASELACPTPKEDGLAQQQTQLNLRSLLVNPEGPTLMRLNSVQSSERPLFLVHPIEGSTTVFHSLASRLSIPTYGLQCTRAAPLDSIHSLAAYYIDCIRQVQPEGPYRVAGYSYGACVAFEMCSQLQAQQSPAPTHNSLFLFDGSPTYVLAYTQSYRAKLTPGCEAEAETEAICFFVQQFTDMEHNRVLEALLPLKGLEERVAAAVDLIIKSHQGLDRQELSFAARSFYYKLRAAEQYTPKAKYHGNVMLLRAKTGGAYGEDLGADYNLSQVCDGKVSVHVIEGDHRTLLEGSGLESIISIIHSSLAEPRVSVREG

With `CNC(=O)c1ccc2nc(-c3ccc(-c4ccccc4)cc3)n(CC3CCN(C(=O)C4CC4)C3)c2c1` (stereo unspecified) [2-([1,1'-Biphenyl]-4-yl)-1-((1-(cyclopropanecarbonyl)pyrrolidin-3-yl)methyl)-N-methyl-1H-benzo[d]imidazole-6-carboxamide], the IC50 – broadly, the point on the concentration scale where inhibition reaches its midpoint – was 1000 nM.
